Here are results for three compounds from DBAASP.

≈ marks a conversion by molar mass, not a printed value. Where “and” joins values, the source holds several entries; their conditions need not be identical. Identical values can stand only once.

What all share (assay): ≥ marks a high value that may be exact or a test limit, other limits are often not marked, values filed in µg/mL are converted to µM
Test [1] concerns Escherichia coli AB94012.
In test [2] the test system is Staphylococcus aureus P1389.
Test [3] deals with Bacillus thuringiensis AB92037.
Test [4] has as its system Staphylococcus aureus AB94004.
Test [5] deals with Staphylococcus aureus P1381.
In test [6] the test system is Staphylococcus aureus P1374.
The test system of test [7] is Staphylococcus epidermidis AB208187.
For test [8], the system named is Escherichia coli ATCC 25922.
The test system of test [9] is Bacillus subtilis AB91021.
In test [10] the test system is Staphylococcus aureus ATCC 25923.
For test [11], the system named is Staphylococcus epidermidis AB208188.
Test [12] has as its system Staphylococcus aureus ATCC 6538.
In test [13] the test system is Micrococcus luteus AB93113.
Test [14] deals with Pseudomonas aeruginosa ATCC 9027.
The test system of test [15] is Staphylococcus aureus AB208193.
Test [16] concerns Micrococcus luteus ATCC 9341.
Test [17] has as its system Candida albicans ATCC 36232.
Test [18] concerns Fusarium oxysporum MUCL 909.
Test [19] relates to Trichophyton mentagrophytes.
Test [20] deals with Fusarium culmorum MUCL 30162.
Test [21] relates to Aspergillus fumigatus.
Test [22] has as its system Fusarium haematococcum 160.2.2.
The test system of test [23] is Neurospora crassa CBS 327-54.
Test [24] concerns Alternaria brassicicola MUCL 20297.

`CC[C@H](C)[C@H](NC(=O)[C@H](CCCCN)NC(=O)[C@@H](NC(=O)[C@H](C)NC(=O)[C@H](CC(C)C)NC(=O)[C@H](CCCCN)NC(=O)[C@H](Cc1ccccc1)NC(=O)[C@H](CC(C)C)NC(=O)[C@H](Cc1cnc[nH]1)NC(=O)CNC(=O)[C@H](Cc1ccccc1)NC(=O)[C@@H](N)Cc1ccccc1)[C@@H](C)O)C(=O)N[C@H](C(=O)N1CCC[C@H]1C(=O)N[C@@H](CO)C(=O)N[C@@H](CC(C)C)C(=O)N[C@@H](Cc1ccccc1)C(=O)N[C@@H](CCC(N)=O)C(=O)O)[C@@H](C)CC` [FFGHLFKLATKIIPSLFQ]: the MIC (in general, the smallest concentration in the dilution series that meets the test's criterion for growth inhibition) in test [1] was found to be 23.7 µM (≈ 49.9 µg/mL); in [2], 3 µM (≈ 6.32 µg/mL); in test [3], 3 µM (≈ 6.32 µg/mL); in [4] it was 1.5 µM (≈ 3.16 µg/mL); in test [5], 1.5 µM (≈ 3.16 µg/mL); in test [6], 3 µM (≈ 6.32 µg/mL). Further, the MIC in test [7] worked out at 3 µM (≈ 6.32 µg/mL); in test [8], 11.9 µM (≈ 25.1 µg/mL); in test [9], 3 µM (≈ 6.32 µg/mL); in test [10], 3 µM (≈ 6.32 µg/mL); in test [11], 1.5 µM (≈ 3.16 µg/mL); in test [12] it was 1.5 µM (≈ 3.16 µg/mL). The results for the MIC in test [13], in test [14] and in test [15] were ≥ 47.5 µM, 11.9 µM (≈ 25.1 µg/mL) and 3 µM (≈ 6.32 µg/mL), respectively.
`CC(C)[C@H](NC(=O)[C@H](CCCCN)NC(=O)[C@H](Cc1ccccc1)NC(=O)[C@@H](NC(=O)[C@@H](NC(=O)[C@H](CCCCN)NC(=O)[C@H](CCCCN)NC(=O)[C@@H](N)CCCCN)C(C)C)C(C)C)C(=O)N[C@@H](CCCCN)C(=O)N[C@@H](Cc1ccccc1)C(=O)N[C@@H](CCCCN)C(N)=O` [KKKVVFKVKFK]: the MIC in test [16] was 2.27 µM (≈ 3.13 µg/mL); in test [17], 9.07 µM and 3.21 µM and 4.53 µM; in test [12], 2.27 µM (≈ 3.13 µg/mL).
On to `CC[C@H](C)[C@H](NC(=O)[C@H](CO)NC(=O)[C@H](CC(C)C)NC(=O)[C@@H](NC(=O)[C@@H](N)CCCN=C(N)N)[C@@H](C)CC)C(=O)N[C@@H](CC(C)C)C(=O)N[C@@H](CCCN=C(N)N)C(=O)N[C@@H](Cc1cnc[nH]1)C(=O)N[C@@H](CCC(N)=O)C(=O)N[C@@H](CC(N)=O)C(=O)N[C@@H](CC(C)C)C(=O)N[C@@H](CC(C)C)C(=O)N[C@@H](CCCCN)C(=O)N[C@@H](CCC(=O)O)C(=O)N[C@@H](CC(C)C)C(=O)N[C@@H](CCC(N)=O)C(=O)N[C@@H](CC(=O)O)C(=O)N[C@@H](CC(C)C)C(=O)N[C@@H](C)C(=O)N[C@@H](CC(C)C)C(=O)N[C@@H](CCC(N)=O)C(=O)NCC(=O)N[C@@H](C)C(=O)N[C@@H](CCCCN)C(=O)O` [RILSILRHQNLLKELQDLALQGAK], for which the MIC amounted to 30 µM (≈ 83.1 µg/mL) in [18]; 30 µM (≈ 83.1 µg/mL) in [19]; 10 µM (≈ 27.7 µg/mL) in test [20]; 30 µM (≈ 83.1 µg/mL) in test [21]; 7 µM (≈ 19.4 µg/mL) in [22]; 5 µM (≈ 13.9 µg/mL) in [23]. In [24], this compound gave an MIC of 10 µM (≈ 27.7 µg/mL).
